Reference: patent publication US10758539B2, “Therapeutic compounds and uses thereof” (Kala Pharmaceuticals, Inc., priority 2013, dated 2020)
Like-named read-outs stand apart in the source and are kept apart here.

Tests used:
[1] = Particle size of compounds milled with PLURONIC F127 as MPP, by dynamic light scattering; format: physicochemical; settings: formulated as MPP, milled with PLURONIC F127, buffered with DPBS
Excerpt: The compounds of the present invention synthesized in accordance with the preceding Examples were formulated as mucus penetrating particles (MPP). Specifically, Compound 4 of Example 1, Compound 9 of Example 2, and Compound 13 of Example 3 were each milled in the presence of PLURONIC F127 (F127) to determine whether F127 1) aids particle size reduction to several hundreds of nanometers and 2) physically (non-covalently) coats the surface of generated nanoparticles with a mucoinert coating that would minimize particle interactions with mucus constituents and prevent mucus adhesion.
A milling procedure was employed in which an aqueous dispersion containing coarse drug particles and PLURONIC F127 (F127) was milled with grinding medium until particle size was reduced below 400 nm as measured by dynamic light scattering. Table 4 lists the size of particles and polydispersity index (a measure of the width of the particle size distribution) generated using this technique. In this example suspensions were buffered using DPBS (Dulbecco's Phosphate-Buffered Saline) which yields a suspension that is both isotonic and has a physiologically relevant pH.

[2] = Pharmacokinetic study, back of the eye drug exposure after topical instillation of MPP; format: in vivo, Dutch-belted rabbits; settings: Dutch-belted, rabbit, topical or ocular, 50 μL of 0.5% MPP, MPP 0.5%, 50 μL topical, BID 5 days, 8 mm round punch
Excerpt: (§1) Dutch-belted rabbits were used in these studies.
The portion of the retina and choroid collected and analyzed was an 8 mm round punch where the macula is located in humans.

[3] = Draize-Ocular Irritation assessment during the PK study; format: in vivo, Dutch-belted rabbits; settings: MPP 0.5%, 50 μL topical, BID 5 days
Excerpt: as §1

[4] = Physical and chemical stability of Compound 4 solutions at ambient temperature; format: physicochemical; settings: 20-25° C.
Protocol: In this example, Compound 4 was formulated as a solution for topical ocular administration. Solutions of Compound 4 were formulated at a range of concentrations. Briefly, Compound 4 was first completely solubilized using an acidic solution (0.1N HCl) at a high concentration of ˜5% (w/v). The final formulation was diluted to 0.5, 0.1, or 0.05% (w/v) Compound 4 into 20 mM Citrate buffered solution containing TWEEN 80 as described in Table 7. Following dilution, the pH's of the formulations were estimated to be ˜5.5-6.5, using a universal pH indicator solution (Ricca).
Solution physical and chemical stability at ambient temperature (20-25° C.) were evaluated 10-21 days after initial formulation (tfinal). Physical stability was assessed visually. No precipitation or sedimentation in any samples was observed. All formulations maintained good chemical stability, within 10% of target concentration at tfinal. The API purity as defined by % peak area for all formulations were also high, at >99% (Table 8). Formulations pH's were also measured using a universal pH indicator solution (RICCA) and confirmed be similar to those at initial time of formulation.

[5] = target API 0.05% (w/v), TWEEN 80 0.05% (w/v), tfinal 13 days
[6] = target API 0.10% (w/v), TWEEN 80 0.1% (w/v), tfinal 21 days
[7] = target API 0.50% (w/v), TWEEN 80 4% (w/v), tfinal 10 days

Row | Structure (SMILES) | Particle Size [1] | Polydispersity Index (PDI) [1] | AUC(0-t) ([2]; choroid, read-out: AUC0-last Choroid) | Cmax ([2]; choroid, read-out: Cmax Choroid) | AUC(0-t) ([2]; retina, read-out: AUC0-last Retina) | Cmax ([2]; retina, read-out: Cmax Retina) | Draize-Ocular Irritation [3] | API % (w/v) at t = tfinal [4, 5] | API % peak area at t = tfinal [4, 5] | API % (w/v) at t = tfinal [4, 6] | API % peak area at t = tfinal [4, 6] | API % (w/v) at t = tfinal [4, 7] | API % peak area at t = tfinal [4, 7]
1 | CCCNC(=O)n1c(C)cc2c(F)c(Oc3ncnc4cc(OC)c(OC)cc34)ccc21 [Compound 13, 5-(6,7-Dimethoxyquinazolin-4-yloxy)-4-fluoro-2-methyl-N-propyl-1H-indole-1-carboxamide] | 165 nm | 0.227 |  |  |  |  |  |  |  |  |  |  | 
2 | COc1cc2c(Oc3ccc4[nH]c(C)cc4c3F)ncnc2cc1OCCCN1CCC2(CC1)COC2 [Compound 4, 7-(3-(4-(4-fluoro-2-methyl-1H-indol-5-yloxy)-6-methoxyquinazolin-7-yloxy)propyl)-2-oxa-7-azaspiro[3.5]nonane] | 270 nm | 0.142 | 37.2 µM·h | 3900 nM | 1.15 µM·h | 193 nM | no irritation was seen | 0.05 % (w/v) | 99.45% | 0.11 % (w/v) | 99.47% | 0.51 % (w/v) | 99.27%
